# Experimental data: patent publication US20060183901A1, “Crystalline form of an indazole-carboxamide compound” (THERAVANCE, INC., priority 2005, published 2006)
# pKi: −log10 of the molar value.
# What was measured:
# Caco-2 cell monolayer = assay: Caco-2 permeation assay; assay type: in vitro ADME, human; details: 100 μM, 37° C., 60 min
# Description: Assay 5: In Vitro Model of Oral Bioavailability: Caco-2 Permeation Assay
# The Caco-2 permeation assay was performed to model the ability of test compounds to pass through the intestine and get into the blood stream after oral administration. The rate at which test compounds in solution permeate a cell monolayer designed to mimic the tight junction of human small intestinal monolayers was determined.
# Caco-2 (colon, adenocarcinoma; human) cells were obtained from ATCC (American Type Culture Collection; Rockville, Md.). For the permeation study, cells were seeded at a density of 63,000 cells/cm^2 on pre-wetted transwells polycarbonate filters (Costar; Cambridge, Mass.). A cell monolayer was formed after 21 days in culture. Following cell culture in the transwell plate, the membrane containing the cell monolayer was detached from the transwell plate and inserted into the diffusion chamber (Costar; Cambridge, Mass.). The diffusion chamber was inserted into the heating block which was equipped with circulating external, thermostatically regulated 37° C. water for temperature control. […]
# The permeation study was performed with test compound concentrations at 100 μM and with ^14C-mannitol to monitor the integrity of the monolayer. […] Samples were analyzed by HPLC or liquid scintillation counting for test compound and mannitol concentrations. The permeation coefficient (Kp) in cm/sec was calculated.
# human 5-HT3A receptor = human 5-HT3A receptor (Homo sapiens, UniProt P46098)
# Description: Assay 2: Radioligand Binding Assay on 5-HT3A Human Receptors: Determination of Receptor Subtype Selectivity
# Membrane Preparation 5-HT3A
# Cells were grown in T-225 flasks or cell factories in 50% Dulbecco's Modified Eagles Medium (DMEM) (GIBCO-Invitrogen Corp., Carlsbad, Calif.: Cat #11965) and 50% Ham's F12 (GIBCO-Invitrogen Corp.: Cat #11765) supplemented with 10% heat inactivated fetal bovine serum (FBS) (Hyclone, Logan, Utah: Cat #SH30070.03) and (50 units) penicillin-(50 μg) streptomycin/ml (GIBCO-Invitrogen Corp.: Cat #15140) in a 5% CO2, humidified incubator at 37° C.
# Cells were grown to roughly 70-80% confluency (<35 subculture passages). All steps of the membrane preparation were performed on ice. […]
# Radioligand binding assays were performed in 96-well polypropylene assay plates in a total assay volume of 200 μL containing 1.5-2 μg membrane protein in 50 mM HEPES pH 7.4, containing 0.025% BSA assay buffer. […] Non-specific binding was determined in the presence of 10 μM unlabeled MDL72222. […] Filter plates were washed three times with filtration buffer (ice-cold 50 mM HEPES, pH7.4) to remove unbound radioactivity. Plates were dried, 35 μL Microscint-20 liquid scintillation fluid (Packard BioScience Co., Meriden, Conn.) was added to each well and plates were counted in a Packard Topcount liquid scintillation counter (Packard BioScience Co., Meriden, Conn.). […]
# human 5-HT4(c) receptor = human 5-HT4(c) receptor (Homo sapiens, UniProt Q13639); assay: Radioligand binding assay on 5-HT4(c) human receptors; parameters: expressed in transfected cells
# Description: Assay 1: Radioligand Binding Assay on 5-HT4(c) Human Receptors a. Membrane Preparation 5-HT4(c)
# Cells were grown under continuous selection pressure by the addition of 800 μg/mL geneticin (GIBCO-Invitrogen Corp.: Cat #10131) to the medium.
# Cells were grown to roughly 60-80% confluency (<35 subculture passages). At 20-22 hours prior to harvesting, cells were washed twice and fed with serum-free DMEM. […] The cell monolayer was lifted by gentle mechanical agitation and trituration with a 25 mL pipette.
# For the membrane preparation, cell pellets were resuspended in ice-cold 50 mM 4-(2-hydroxyethyl)-1-piperazineethanesulphonic acid (HEPES), pH 7.4 (membrane preparation buffer) (40 mL/total cell yield from 30-40 T225 flasks) and homogenized using a polytron disrupter (setting 19, 2×10 s) on ice. The resultant homogenates were centrifuged at 1200 g for 5 min at 4° C. […] Protein concentration of the membrane suspension was determined by the method of Bradford (Bradford, 1976). […]
# Non-specific binding was determined in the presence of 1 μM unlabeled GR113808.
# Binding data were analyzed by nonlinear regression analysis with the GraphPad Prism Software package (GraphPad Software, Inc., San Diego, Calif.) using the 3-parameter model for one-site competition. […] Results are expressed as the negative decadic logarithm of the Ki values, pKi.
# Chain of human 5-HT4(c) receptor (Q13639 1-380 isoform Q13639-4): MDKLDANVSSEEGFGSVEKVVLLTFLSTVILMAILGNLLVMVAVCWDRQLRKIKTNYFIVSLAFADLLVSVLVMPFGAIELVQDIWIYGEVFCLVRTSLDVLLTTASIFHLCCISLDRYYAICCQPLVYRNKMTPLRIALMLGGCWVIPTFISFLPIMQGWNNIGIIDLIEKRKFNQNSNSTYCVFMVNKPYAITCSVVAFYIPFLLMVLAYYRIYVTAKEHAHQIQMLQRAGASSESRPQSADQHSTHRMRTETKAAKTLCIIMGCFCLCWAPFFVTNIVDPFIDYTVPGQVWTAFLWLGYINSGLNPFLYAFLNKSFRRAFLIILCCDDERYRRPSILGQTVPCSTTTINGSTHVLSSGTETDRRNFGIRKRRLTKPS
# Chain of human 5-HT3A receptor (P46098 24-478): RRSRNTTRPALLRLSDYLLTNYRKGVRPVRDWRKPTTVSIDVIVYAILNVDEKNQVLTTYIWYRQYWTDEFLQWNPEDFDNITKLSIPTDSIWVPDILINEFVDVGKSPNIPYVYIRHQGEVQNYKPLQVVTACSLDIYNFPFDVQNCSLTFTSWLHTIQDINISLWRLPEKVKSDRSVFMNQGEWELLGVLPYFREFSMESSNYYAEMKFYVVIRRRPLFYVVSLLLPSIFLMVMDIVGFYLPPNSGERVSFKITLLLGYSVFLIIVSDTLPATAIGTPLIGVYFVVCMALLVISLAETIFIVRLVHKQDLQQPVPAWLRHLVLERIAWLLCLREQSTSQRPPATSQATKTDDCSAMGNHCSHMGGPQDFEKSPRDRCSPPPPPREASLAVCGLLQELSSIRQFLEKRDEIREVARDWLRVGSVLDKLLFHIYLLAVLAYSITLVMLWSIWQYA
smiles,measurement,setting,value
"CC(=O)N1CCN(CCN2C3CCC2CC(NC(=O)c2nn(C(C)C)c4ccccc24)C3)CC1 [compound of formula I, 1-isopropyl-1H-indazole-3-carboxylic acid {(1S,3R,5R)-8-[2-(4-acetylpiperazin-1-yl)ethyl]-8-azabicyclo[3.2.1]oct-3-yl}amide]",permeation coefficient Kp,Caco-2 cell monolayer,greater than 20×10^−6 cm/sec
same,"5-HT4/5-HT3 receptor subtype selectivity, ratio Ki(5-HT3A)/Ki(5-HT4(c))",human 5-HT3A receptor,greater than 500
same,pKi,human 5-HT4(c) receptor,> 7.00
